How the values were obtained:
Experiment in all cases: Cell growth assay
Type in all cases: cell-based
[1] = test system: BT-20; conditions: Homo sapiens, 72 h; BT-20, RAF WT, RAS WT, 3-day; read-out: gIC50
Procedure: (§1) Growth was measured with CellTiter-Glo® (Promega) reagent per the manufacturer’s protocol, using a PerkinElmer EnVision™ reader at t = 0 and 72 h. IC50 values for cell growth inhibition (gIC50) were determined.
(§2) (PDF) Click here for additional data file.

[2] = test system: OE-21; conditions: Homo sapiens, OE21, 72 h; OE-21, RAF WT, RAS WT, 3-day; read-out: gIC50
Procedure: as §1, §2

[3] = test system: Colo704; conditions: Homo sapiens, COLO 704, 72 h; Colo704, RAF WT, RAS WT, 3-day; read-out: gIC50
Procedure: as §1, §2

[4] = test system: SaOS2; conditions: Homo sapiens, SAOS-2, 72 h; SaOS2, RAF WT, RAS WT, 3-day; read-out: gIC50
Procedure: as §1, §2

[5] = test system: G401; conditions: Homo sapiens, G-401, 72 h; G401, RAF WT, RAS WT, 3-day; read-out: gIC50
Procedure: as §1, §2

[6] = test system: 22Rv1; conditions: Homo sapiens, 72 h; 22Rv1, RAF WT, RAS WT, 3-day; read-out: gIC50
Procedure: as §1, §2

[7] = test system: SF-268; conditions: Homo sapiens, 72 h; SF-268, RAF WT, RAS WT, 3-day; read-out: gIC50
Procedure: as §1, §2

[8] = test system: SNU-16; conditions: Homo sapiens, 72 h; SNU-16, RAF WT, RAS WT, 3-day; read-out: gIC50
Procedure: as §1, §2

[9] = test system: Calu-3; conditions: Homo sapiens, 72 h; Calu-3, RAF WT, RAS WT, 3-day; read-out: gIC50
Procedure: as §1, §2

[10] = test system: HT-29; conditions: Homo sapiens, 72 h; HT-29, BRAF(V600E), RAS WT, 3-day; read-out: gIC50
Procedure: as §1, §2

[11] = test system: DOTC 24510; conditions: Homo sapiens, DoTc2-4510, 72 h; DOTC 24510, RAF WT, RAS WT, 3-day; read-out: gIC50
Procedure: as §1, §2

[12] = test system: T47D; conditions: Homo sapiens, 72 h, RAF WT, RAS WT, 3-day, read-out: gIC50
Procedure: as §1, §2

[13] = test system: CESS; conditions: Homo sapiens, 72 h, RAF WT, RAS WT, 3-day, read-out: gIC50
Procedure: as §1, §2

[14] = test system: NCI-H157; conditions: Homo sapiens, 72 h; NCI-H157, RAF WT, RAS WT, 3-day; read-out: gIC50
Procedure: as §1, §2

[15] = test system: BC-1; conditions: Homo sapiens, BC1, 72 h; BC-1, RAF WT, RAS WT, 3-day; read-out: gIC50
Procedure: as §1, §2

[16] = test system: J82; conditions: Homo sapiens, 72 h; J82, RAF WT, RAS WT, 3-day; read-out: gIC50
Procedure: as §1, §2

[17] = test system: C3A; conditions: Homo sapiens, 72 h, RAF WT, RAS WT, 3-day, read-out: gIC50
Procedure: as §1, §2

[18] = test system: NCI-H1563; conditions: Homo sapiens, 72 h; NCI-H1563, RAF WT, RAS WT, 3-day; read-out: gIC50
Procedure: as §1, §2

[19] = test system: SK-MES-1; conditions: Homo sapiens, 72 h; SK-MES-1, RAF WT, RAS WT, 3-day; read-out: gIC50
Procedure: as §1, §2

[20] = test system: PC-3; conditions: Homo sapiens, 72 h; PC-3, RAF WT, RAS WT, 3-day; read-out: gIC50
Procedure: as §1, §2

[21] = test system: Be(2)C; conditions: Homo sapiens, 72 h, RAF WT, RAS WT, 3-day, read-out: gIC50
Procedure: as §1, §2

[22] = test system: NCI-H508; conditions: Homo sapiens, 72 h; NCI-H508, BRAF(G596R), RAS WT, 3-day; read-out: gIC50
Procedure: as §1, §2

[23] = test system: RL; conditions: Homo sapiens, 72 h, RAF WT, RAS WT, 3-day, read-out: gIC50
Procedure: as §1, §2

[24] = test system: ACHN; conditions: Homo sapiens, 72 h, RAF WT, RAS WT, 3-day, read-out: gIC50
Procedure: as §1, §2

[25] = test system: C33A; conditions: Homo sapiens, C-33-A, 72 h, RAF WT, RAS WT, 3-day, read-out: gIC50
Procedure: as §1, §2

[26] = test system: SK-MEL-3; conditions: Homo sapiens, SK-MEL3, 72 h; SK-MEL-3, BRAF(V600E), RAS WT, 3-day; read-out: gIC50
Procedure: as §1, §2

[27] = test system: UACC-812; conditions: Homo sapiens, 72 h; UACC-812, RAF WT, RAS WT, 3-day; read-out: gIC50
Procedure: as §1, §2

[28] = test system: SJRH30; conditions: Homo sapiens, 72 h; SJRH30, RAF WT, RAS WT, 3-day; read-out: gIC50
Procedure: as §1, §2

[29] = test system: NCI-H747; conditions: Homo sapiens, 72 h; NCI-H747, RAF WT, KRAS(G13D), 3-day; read-out: gIC50
Procedure: as §1, §2

[30] = test system: P3HR-1; conditions: Homo sapiens, 72 h; P3HR-1, RAF WT, RAS WT, 3-day; read-out: gIC50
Procedure: as §1, §2

[31] = test system: EB-3; conditions: Homo sapiens, 72 h; EB-3, RAF WT, RAS WT, 3-day; read-out: gIC50
Procedure: as §1, §2

[32] = test system: UMUC-3; conditions: Homo sapiens, UMUC3, 72 h; UMUC-3, RAF WT, KRAS(G12C), 3-day; read-out: gIC50
Procedure: as §1, §2

CC(C)(C)c1nc(-c2cccc(NS(=O)(=O)c3c(F)cccc3F)c2F)c(-c2ccnc(N)n2)s1 [dabrafenib]
IC50 [1]: > 10 µM | IC50 [2]: > 10 µM | IC50 [3]: > 10 µM | IC50 [4]: > 10 µM | IC50 [5]: > 10 µM | IC50 [6]: > 10 µM | IC50 [7]: > 10 µM | IC50 [8]: > 10 µM | IC50 [9]: > 10 µM | IC50 [10]: 0.066 µM | IC50 [11]: > 10 µM | IC50 [12]: > 10 µM | IC50 [13]: 0.497 µM | IC50 [14]: > 10 µM | IC50 [15]: 0.704 µM | IC50 [16]: > 10 µM | IC50 [17]: 5.41 µM | IC50 [18]: > 10 µM | IC50 [19]: 0.329 µM | IC50 [20]: > 10 µM | IC50 [21]: > 10 µM | IC50 [22]: > 10 µM | IC50 [23]: > 10 µM | IC50 [24]: 0.294 µM | IC50 [25]: > 10 µM | IC50 [26]: 0.007 µM | IC50 [27]: > 10 µM | IC50 [28]: > 10 µM | IC50 [29]: > 10 µM | IC50 [30]: > 10 µM | IC50 [31]: > 10 µM | IC50 [32]: > 10 µM
